Structures can show the parent of a compound that is named as a salt.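 Results reflect a 48-hour exposure of cells in 96-well plates to compound at five concentrations. Here, GI50 denotes the concentration required for 50% inhibition of growth.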 Activity calls are given as the source filed them. No stated cut-off is given here; in the data, active = GI50 up to about 1.1 µM and inactive = higher.
Tests used:
Experiment in all cases: NCI anticancer screen, dose series, 48 h
[1] = tested on: CAKI-1
[2] = tested on: CCRF-CEM
[3] = tested on: COLO 205
[4] = tested on: DU-145
[5] = tested on: HCC 2998
[6] = tested on: HOP-62
[7] = tested on: HOP-92
[8] = tested on: MDA-MB-231
[9] = tested on: MDA-MB-435
[10] = tested on: Malme-3M
[11] = tested on: NCI-H460
[12] = tested on: OVCAR-3
[13] = tested on: OVCAR-4
[14] = tested on: PC-3
[15] = tested on: RPMI-8226
[16] = tested on: SF-268
[17] = tested on: SF-539
[18] = tested on: U-251
[19] = tested on: UACC-62
[20] = tested on: UO-31

| SMILES | GI50 [1] | GI50 [2] | GI50 [3] | GI50 [4] | GI50 [5] | GI50 [6] | GI50 [7] | GI50 [8] | GI50 [9] | GI50 [10] | GI50 [11] | GI50 [12] | GI50 [13] | GI50 [14] | GI50 [15] | GI50 [16] | GI50 [17] | GI50 [18] | GI50 [19] | GI50 [20] |
| --- | --- | --- | --- | --- | --- | --- | --- | --- | --- | --- | --- | --- | --- | --- | --- | --- | --- | --- | --- | --- |
| O/N=C1/CCCc2nonc21 | > 100 µM (inactive) | > 100 µM (inactive) | > 100 µM (inactive) | > 100 µM (inactive) | > 100 µM (inactive) | > 100 µM (inactive) | > 100 µM (inactive) | > 100 µM (inactive) | > 100 µM (inactive) | > 100 µM (inactive) | > 100 µM (inactive) | > 100 µM (inactive) | > 100 µM (inactive) | > 100 µM (inactive) | > 100 µM (inactive) | > 100 µM (inactive) | > 100 µM (inactive) | > 100 µM (inactive) | > 100 µM (inactive) | > 100 µM (inactive) |
| CSc1nc(SC)c2c(C)cn(Cc3ccccc3)c2n1 | > 100 µM (inactive) | 51.4 µM (inactive) | > 100 µM (inactive) | > 100 µM (inactive) | 44.1 µM (inactive) | > 100 µM (inactive) | 20.6 µM (inactive) | > 100 µM (inactive) | 33.2 µM (inactive) | > 100 µM (inactive) | 80.2 µM (inactive) | > 100 µM (inactive) | > 100 µM (inactive) | > 100 µM (inactive) | 85.9 µM (inactive) | > 100 µM (inactive) | 93.1 µM (inactive) | > 100 µM (inactive) | > 100 µM (inactive) | 56.8 µM (inactive) |
| O=C(CN1CCN(c2ccccn2)CC1)N1CCCn2c1nc1ccccc1c2=O | > 100 µM (inactive) | > 100 µM (inactive) | > 100 µM (inactive) | > 100 µM (inactive) | > 100 µM (inactive) | > 100 µM (inactive) | > 100 µM (inactive) | > 100 µM (inactive) | > 100 µM (inactive) | > 100 µM (inactive) | > 100 µM (inactive) | > 100 µM (inactive) | > 100 µM (inactive) | > 100 µM (inactive) | > 100 µM (inactive) | > 100 µM (inactive) | > 100 µM (inactive) | > 100 µM (inactive) | > 100 µM (inactive) | > 100 µM (inactive) |
| CCCc1c(OC)c(=O)c2c(O)cc(OC)c3c4c(OC)cc(O)c5c(=O)c(OC)c(CCC)c(c1c23)c54 | 4.17 µM (inactive) | 1.26 µM (inactive) | 4.35 µM (inactive) | 3.76 µM (inactive) | 14.7 µM (inactive) | 6.47 µM (inactive) | 5.69 µM (inactive) | 2.46 µM (inactive) | 1.85 µM (inactive) | 2.43 µM (inactive) | 3.16 µM (inactive) | 3.47 µM (inactive) | 3.72 µM (inactive) | 2.44 µM (inactive) | 2.5 µM (inactive) | 5 µM (inactive) | 1.49 µM (inactive) | 0.615 µM (active) | 10.3 µM (inactive) | 2.62 µM (inactive) |
| CC(=O)N(O)CCCCCNC(=O)CCC(=O)N(O)CCCCCNC(=O)CCC(=O)N(O)CCCCCN [DEFEROXAMINE HYDROCHLORIDE] | 42.4 µM (inactive) | 4.48 µM (inactive) | 34.7 µM (inactive) | 13.6 µM (inactive) | 55.7 µM (inactive) | 18.4 µM (inactive) | > 100 µM (inactive) | > 100 µM (inactive) | > 78.5 µM (inactive) | 55.1 µM (inactive) | 6.53 µM (inactive) | 20.9 µM (inactive) | 21.7 µM (inactive) | > 73.6 µM (inactive) | 62.5 µM (inactive) | 24.9 µM (inactive) | 30.1 µM (inactive) | 20.6 µM (inactive) | 31.6 µM (inactive) | 24.5 µM (inactive) |

From ChEMBL document CHEMBL1201862, “PubChem BioAssay data set” (2004)
